In ChEMBL document CHEMBL6121036, “Evaluation of Cereblon-Directing Warheads for the Development of Orally Bioavailable PROTACs” (J Med Chem, 2025):
In brackets after ≈: the same amount, converted by molar mass. Activity calls are given as the source filed them. The calls are words filed in the database; no cut-off is given here.

Tests used:
[1] = molecular target: T1, Protein cereblon/Bromodomain-containing protein 4 (Homo sapiens, UniProt O60885+Q96SW2); test: PROTAC activity at CRBN/Hibit-tagged BRD4 (unknown origin) expressed in HEK293 cells co-expressing LgBiT assessed as degradation of BRD4 incubated for 24 hrs by […] glo-max assay; assay type: cell-based
[2] = molecular target: T1, Protein cereblon/Bromodomain-containing protein 4; test: PROTAC activity at CRBN/Hibit-tagged BRD4 (unknown origin) expressed in HEK293 cells co-expressing LgBiT assessed as degradation of BRD4 incubated for 24 hrs by […] glo-max assay relative to control; assay type: cell-based
[3] = molecular target: T1, Protein cereblon/Bromodomain-containing protein 4; test: PROTAC activity at CRBN/Hibit-tagged BRD4 (unknown origin) expressed in HEK293 cells co-expressing LgBiT assessed as degradation rate incubated for 24 hrs by […] glo-max assay; assay type: cell-based
MV4-11 = test: Cytotoxicity against human MV4-11 cells assessed as reduction in cell viability incubated for 72 hrs by cell-titer glo assay; assay type: functional, cell-based; settings: MV4-11, 72 h
HD-MB03 = test: Cytotoxicity against human HD-MB03 cells assessed as reduction in cell viability incubated for 72 hrs by cell-titer glo assay; assay type: functional, cell-based; settings: HD-MB03, 72 h
[4] = Kinetic aqueous solubility of the compound at pH 7.4; assay type: physicochemical; settings: read-out: Kinetic_solubility
[5] = Metabolic stability in mouse liver microsomes assessed as half life; assay type: ADME, Microsome; settings: liver microsomes
[6] = molecular target: Protein cereblon/Bromodomain-containing protein 4/DNA damage-binding protein 1 (Homo sapiens) (UniProt O60885+Q96SW2+Q16531); test: Binding affinity to his-tagged CRBN/DDB1/GST-tagged BRD4 (49 to 170 residues)(unknown origin) assessed as ternary complex formation (AUC) incubated for 1 hr by luminescence based Alphascreen assay; assay type: protein assay
HEK293 = test: Cytotoxicity against HEK293 cells expressing LgBiT fused HiBiT-BRD2 measured after 24 hrs by cell titer-glo assay; assay type: toxicity, cell-based; settings: human, hek293, 24 h
[7] = molecular target: T2, Protein cereblon/Bromodomain-containing protein 2 (Homo sapiens) (UniProt P25440+Q96SW2); test: PROTAC activity at CRBN/Hibit-tagged CRISPR BRD2 (unknown origin) expressed in HEK293 cells coexpressing LgBiT assessed as degradation of BRD2 by […] glo-max assay; assay type: cell-based
[8] = molecular target: Protein cereblon/Bromodomain-containing protein 3 (Homo sapiens) (UniProt Q15059+Q96SW2); test: PROTAC activity at CRBN/Hibit-tagged CRISPR BRD3 (unknown origin) expressed in HEK293 cells co-expressing LgBiT assessed as degradation of BRD3 by […] glo-max assay; assay type: cell-based
[9] = molecular target: T1, Protein cereblon/Bromodomain-containing protein 4; test: PROTAC activity at CRBN/Hibit-tagged CRISPR BRD4 (unknown origin) expressed in HEK293 cells co-expressing LgBiT assessed as degradation of BRD4 by […] glo-max assay; assay type: cell-based
[10] = Effect on BRD3 level in human MV4-11 cells assessed as fold change at 100 nM measured after 4 hrs; assay type: functional
[11] = Effect on BRD4 level in human MV4-11 cells assessed as fold change at 100 nM measured after 4 hrs; assay type: functional
[12] = Effect on BRD2 level in human MV4-11 cells assessed as fold change at 100 nM measured after 4 hrs; assay type: functional
[13] = Effect on MYC level in human MV4-11 cells assessed as fold change at 100 nM measured after 4 hrs; assay type: functional
[14] = Effect on FYTTD1 level in human MV4-11 cells assessed as fold change at 100 nM measured after 4 hrs; assay type: functional
[15] = Effect on CCNF level in human MV4-11 cells assessed as fold change at 100 nM measured after 4 hrs; assay type: functional
[16] = Effect on CDC42EP3 level in human MV4-11 cells assessed as fold change at 100 nM measured after 4 hrs; assay type: functional
[17] = Effect on MCL1 level in human MV4-11 cells assessed as fold change at 100 nM measured after 4 hrs; assay type: functional
[18] = Effect on PLAU level in human MV4-11 cells assessed as fold change at 100 nM measured after 4 hrs; assay type: functional
[19] = Effect on ZFP36L2 level in human MV4-11 cells assessed as fold change at 100 nM measured after 4 hrs; assay type: functional
[20] = Effect on FGL2 level in human MV4-11 cells assessed as fold change at 100 nM measured after 4 hrs; assay type: functional
[21] = Effect on NSA2 level in human MV4-11 cells assessed as fold change at 100 nM measured after 4 hrs; assay type: functional
[22] = Effect on CCND3 level in human MV4-11 cells assessed as fold change at 100 nM measured after 4 hrs; assay type: functional
[23] = Effect on AURKA level in human MV4-11 cells assessed as fold change at 100 nM measured after 4 hrs; assay type: functional
[24] = Effect on NOP53 level in human MV4-11 cells assessed as fold change at 100 nM measured after 4 hrs; assay type: functional
[25] = Effect on PLK1 level in human MV4-11 cells assessed as fold change at 100 nM measured after 4 hrs; assay type: functional
[26] = Effect on RNF166 level in human MV4-11 cells assessed as fold change at 100 nM measured after 4 hrs; assay type: functional
[27] = Effect on ZBTB21 level in human MV4-11 cells assessed as fold change at 100 nM measured after 4 hrs; assay type: functional
[28] = Effect on TP53 level in human MV4-11 cells assessed as fold change at 100 nM measured after 4 hrs; assay type: functional
[29] = Stability in mouse plasma assessed as half life by UPLC-MS/MS analysis; assay type: ADME, cell-free
[30] = molecular target: T2, Protein cereblon/Bromodomain-containing protein 2 (Homo sapiens); test: PROTAC activity at CRBN/Hibit-tagged CRISPR BRD2 (unknown origin) expressed in HEK293 cells coexpressing LgBiT assessed as degradation of BRD2 by […] glo-max assay relative to control; assay type: cell-based
[31] = Permeability in MDCK-II cells incubated for 1 hr by UPLC/MS/UV analysis; assay type: ADME, cell-based, Canis lupus familiaris; settings: dog, read-out: permeability

Compound | DC50 [1] | Emax [2] | Activity [3] | IC50 (MV4-11) | IC50 (HD-MB03) | solubility kinetic [4] | half-life [5] | Activity [6] | Activity (HEK293) | fold change (FC) [10] | fold change (FC) [11] | fold change (FC) [12] | fold change (FC) [13] | fold change (FC) [14] | fold change (FC) [15] | fold change (FC) [16] | fold change (FC) [17] | fold change (FC) [18] | fold change (FC) [19] | fold change (FC) [20] | other results
Cc1sc2c(c1C)C(c1ccc(Cl)cc1)=N[C@@H](CC(=O)N1CC(COc3ccc(C4CCC(=O)NC4=O)cc3)C1)c1nnc(C)n1-2 (stereo partly drawn) | 13.9 nM | 40.4% | 0.07 fRLU/hr | 3.1 nM | 38.2 nM | 21.3 µM (≈ 14 µg/mL) | 16.8 min | Active | Non-toxic |  |  |  |  |  |  |  |  |  |  |  | 
Cc1sc2c(c1C)C(c1ccc(Cl)cc1)=N[C@@H](CC(=O)N1CCC(CN3CCN(c4ccc(NC5CCC(=O)NC5=O)c(F)c4)CC3)CC1)c1nnc(C)n1-2 (stereo partly drawn) | 2.31 nM | 79.1% | 0.093 fRLU/hr | 0.96 nM | 14.3 nM | 71.1 µM (≈ 55.9 µg/mL) | 112 min | Active |  | -3.87 | -3.41 | -3.07 | -2.23 | -1.46 | -1.62 | -1.17 | -1.06 | -1.06 | -0.97 | -0.95 | Activity [7]: Active; Less Potent Than Protac 8; Activity [8]: Active; Less Potent Than Protac 8; Activity [9]: Active; Less Potent Than Protac 8; fold change (FC) [21]: -1.03; fold change (FC) [22]: -0.82; fold change (FC) [23]: -0.77; fold change (FC) [24]: -0.82; fold change (FC) [25]: -0.65; fold change (FC) [26]: -0.33; fold change (FC) [27]: -0.09; fold change (FC) [28]: 1.71; half-life [29]: 1180 min
Cc1sc2c(c1C)C(c1ccc(Cl)cc1)=N[C@@H](CC(=O)N1CCN(c3ccc(C4CCC(=O)NC4=O)cc3)CC1)c1nnc(C)n1-2 (stereo partly drawn) | > 10000 nM | 10.6% | 0.005 fRLU/hr | 18.6 nM | 250 nM | 17 µM (≈ 11.2 µg/mL) | 12 min | Active; Lower Ternary Complex Auc Formation Observed | Non-toxic |  |  |  |  |  |  |  |  |  |  |  | 
Cc1sc2c(c1C)C(c1ccc(Cl)cc1)=N[C@@H](CC(=O)N1CCC(CN3CCN(c4ccc(NC5CCC(=O)NC5=O)cc4)CC3)CC1)c1nnc(C)n1-2 (stereo partly drawn) | 6.51 nM | 34.9% | 0.036 fRLU/hr | 2.92 nM | 31.4 nM | 5.7 µM (≈ 4.38 µg/mL) | 147 min | Active |  | -2.78 | -2.24 | -1.8 | -1.77 | -0.84 | -0.38 | -1 | -0.49 | -0.73 | -0.75 | -1.19 | Activity [30]: < 50%; fold change (FC) [21]: -0.65; fold change (FC) [22]: -0.56; fold change (FC) [23]: -0.55; fold change (FC) [24]: -0.49; fold change (FC) [25]: -0.56; fold change (FC) [26]: -0.29; fold change (FC) [27]: -0.14; fold change (FC) [28]: 1.12; half-life [29]: 774 min
Cc1sc2c(c1C)C(c1ccc(Cl)cc1)=N[C@@H](CC(=O)NCCCOc1ccc(C3CCC(=O)NC3=O)cc1)c1nnc(C)n1-2 (stereo partly drawn) | 0.75 nM | 97.3% | 0.264 fRLU/hr | 0.23 nM | 3.27 nM | 52.8 µM (≈ 34.1 µg/mL) | 9.6 min | Active | Non-toxic |  |  |  |  |  |  |  |  |  |  |  | 
Cc1sc2c(c1C)C(c1ccc(Cl)cc1)=N[C@@H](CC(=O)OC(C)(C)C)c1nnc(C)n1-2 |  |  |  |  |  |  | 13.8 min |  |  |  |  |  |  |  |  |  |  |  |  |  | 
Cc1sc2c(c1C)C(c1ccc(Cl)cc1)=N[C@@H](CC(=O)N1CCN(CC3CCN(c4ccc(C5CCC(=O)NC5=O)cc4)CC3)CC1)c1nnc(C)n1-2 (stereo partly drawn) | 0.43 nM | 96.9% | 0.245 fRLU/hr | 0.22 nM | 1.96 nM | 64.5 µM (≈ 48.6 µg/mL) | 130 min | Active | Non-toxic |  |  |  |  |  |  |  |  |  |  |  | 
Cc1sc2c(c1C)C(c1ccc(Cl)cc1)=N[C@@H](CC(=O)N1CCC(CN3CCN(c4cc5c(cc4F)C(=O)N(C4CCC(=O)NC4=O)C5=O)CC3)CC1)c1nnc(C)n1-2 (stereo partly drawn) | 6.28 nM | 88.6% | 0.143 fRLU/hr | 3.23 nM | 84 nM | 73.4 µM (≈ 61.7 µg/mL) | 16.8 min | Active |  | -3.93 | -3.89 | -3.06 | -2.29 | -1.52 | -1.86 | -1.41 | -1.22 | -1.14 | -1.09 | -1.1 | Activity [7]: Active; Less Potent Than Protac 8; Activity [8]: Active; Less Potent Than Protac 8; Activity [9]: Active; Less Potent Than Protac 8; fold change (FC) [21]: -1.04; fold change (FC) [22]: -0.96; fold change (FC) [23]: -0.84; fold change (FC) [24]: -0.81; fold change (FC) [25]: -0.75; fold change (FC) [26]: -1.01; fold change (FC) [27]: -0.02; fold change (FC) [28]: 1.82; Papp at 1 h [31]: 10.5 ×10⁻⁶ cm/s; half-life [29]: 822 min
Cc1sc2c(c1C)C(c1ccc(Cl)cc1)=N[C@@H](CC(=O)N1CCN(c3cccc(C4CCC(=O)NC4=O)c3)CC1)c1nnc(C)n1-2 (stereo partly drawn) | > 10000 nM | 12.3% | 0.005 fRLU/hr | 6.36 nM | 90.7 nM | 21.5 µM (≈ 14.1 µg/mL) | 17.4 min | Active; Lower Ternary Complex Auc Formation Observed | Non-toxic |  |  |  |  |  |  |  |  |  |  |  | 
